Experimental data as given in patent US10981862B2, “Physiological cooling compounds” (Symrise, Inc., priority 2015, dated 2021).

Legend:
[1] = Cooling strength and longevity in toothpaste; format: in vivo; conditions: compared with controls
Protocol: New cooling compound according to compound A2 was tested in toothpaste and its impact was evaluated against two controls (no coolant and a known coolant WS-5) and in combination with WS-5.

[2] = Cooling strength and longevity in alcohol-free mouthwash; format: in vivo; conditions: compared with WS-5
Protocol: Select physiological coolants according to various embodiments were tested in an alcohol-free mouthwash and their impact was evaluated against the control (a known coolant WS-5).

[3] = Cooling evaluation in hard boiled candy; format: in vivo; conditions: compared with both control samples
Protocol: Compound A2 was tested in hard boiled candy and evaluated against controls.

sensory panel = experiment: Sensory panel evaluation of cooling ability, 20 ppm aqueous solutions; format: in vivo; conditions: 20 ppm aqueous solution
Protocol: The new carboxamides A1-A15 and B1-B15 were evaluated for their cooling ability by a sensory panel. The evaluation included tasting the 20 ppm aqueous solutions of new carboxamides and rating their maximum cooling strength on a 1-10 scale. In addition, the time at which maximum cooling strength was reached, how long the maximum strength was observed (so called cooling plateau), and the longevity of cooling sensation were recorded. The FIGURE represents a typical cooling profile, using compound A1 as an example. The obtained results (table 2), were compared with two most commonly used commercial cooling compounds WS-3 and WS-23 which belong to the same class of N-alkyl carboxamides. While various methods exist for evaluation of cooling compounds, we have chosen the parameters that allow to assess the practical aspects of new compounds that reflect their potential value as commercial sensory ingredients.

Structure (SMILES): CC(C)CCNC(=O)C1CC(C)CCC1C(C)C (stereo not drawn) [Compound A2]
- melting point: 69.6 °C
- Cooling effect in toothpaste, in words [1]: superior and longer lasting effect
- Cooling effect in mouthwash, in words [2]: superior long-lasting cooling effect
- Cooling impact in hard candy, in words [3]: long-lasting cooling impact
- Longevity of cooling sensation (sensory panel): 23 min
- Time to reach peak cooling (sensory panel): 5 min
- Time period at peak cooling (sensory panel; cooling plateau): 2 min
- Peak cooling strength (sensory panel; maximum cooling strength rated on a 1-10 scale): 7
- Peak Strength (sensory panel; Table 4, repeats Table 2, 1-10 scale): 7
